Test: Actual dose of vitamin on inkjet-printed areas, immersed in water, by UV/Vis absorbance
Type: physicochemical
Settings: for Vitamin B3 dose, measured: 262 nm
Description: Two different ink solutions were used to print the vitamins onto the substrates. […] The solutions were filtered with 0.2 μm polypropylene membrane filter (Whatman, GE Healthcare, Piscataway, N.J., USA) before printing. Inkjet printing was performed with a […] printer (Fujifilm […] Clara, Calif., USA). In the printer, a MEMS-based cartridge-styled printhead with 16 nozzles linearly spaced at 254 μm that produce a nominal drop size of […] was used. Printing was performed in ambient conditions (relative humidity 45.5±5%, 21±1° C.) with a single nozzle using firing voltage of 35 V. The cartridge temperature was 30° C., and the drops were deposited at a drop spacing of 10 μm, 20 μm and 30 μm. The vitamins were printed in squares of 1 cm×1 cm on normal copy paper (n=6) and on multilayer curtain coated paper (n=1). […] Each printed area was immersed into predetermined amount of water and vigorously shaken. […] The calibration curves were done in water, as well.

Compound	Vitamin B2 dose, measured (drop spacing 10, 4 h incubation in water, 267 nm, theoretical 0.32 mg) [mg]	Vitamin B2 dose, measured (drop spacing 10, 4 h incubation in water, 373 nm, theoretical 0.32 mg) [mg]	Vitamin B2 dose, measured (drop spacing 10, second set of rows (no time heading printed), 267 nm, theoretical 0.32 mg) [mg]	Vitamin B2 dose, measured (drop spacing 10, second set of rows (no time heading printed), 373 nm, theoretical 0.32 mg) [mg]	Vitamin B2 dose, measured (drop spacing 20, 4 h incubation in water, 267 nm, theoretical 0.08 mg) [mg]	Vitamin B2 dose, measured (drop spacing 20, 4 h incubation in water, 373 nm, theoretical 0.08 mg) [mg]	Vitamin B2 dose, measured (drop spacing 20, second set of rows (no time heading printed), 267 nm, theoretical 0.08 mg) [mg]	Vitamin B2 dose, measured (drop spacing 20, second set of rows (no time heading printed), 373 nm, theoretical 0.08 mg) [mg]	Vitamin B2 dose, measured (drop spacing 30, 4 h incubation in water, 267 nm, theoretical 0.035 mg) [mg]	Vitamin B2 dose, measured (drop spacing 30, 4 h incubation in water, 373 nm, theoretical 0.035 mg) [mg]	Vitamin B2 dose, measured (drop spacing 30, second set of rows (no time heading printed), 267 nm, theoretical 0.035 mg) [mg]	Vitamin B2 dose, measured (drop spacing 30, second set of rows (no time heading printed), 373 nm, theoretical 0.035 mg) [mg]	Vitamin B3 dose, measured (drop spacing 10, 4 h incubation in water, 1 cm x 1 cm printed area, theoretical 0.501 mg) [mg]	Vitamin B3 dose, measured (drop spacing 10, 24 h incubation in water, theoretical 0.501 mg) [mg]	Vitamin B3 dose, measured (drop spacing 20, 4 h incubation in water, 1 cm x 1 cm printed area, theoretical 0.125 mg) [mg]	Vitamin B3 dose, measured (drop spacing 20, 24 h incubation in water, theoretical 0.125 mg) [mg]	Vitamin B3 dose, measured (drop spacing 30, 4 h incubation in water, 1 cm x 1 cm printed area, theoretical 0.056 mg) [mg]	Vitamin B3 dose, measured (drop spacing 30, 24 h incubation in water, theoretical 0.056 mg) [mg]
Cc1cc2nc3c(=O)[nH]c(=O)nc-3n(C[C@H](O)[C@H](O)[C@H](O)COP(=O)(O)O)c2cc1C [Vitamin B2, riboflavin sodium phosphate]	0.6255	0.6459	0.5847	0.6141	0.1337	0.1403	0.1199	0.1276	0.0623	0.0658	0.0521	0.0560	–	–	–	–	–	–
O=C(O)c1cccnc1 [Vitamin B3, niacin]	–	–	–	–	–	–	–	–	–	–	–	–	0.7594	0.7323	0.2213	0.2142	0.0717	0.0687
